Test results: ChEMBL document CHEMBL1125716, “1,2,4-Triazolo[4,3-a]pyrazine derivatives with human renin inhibitory activity. 3.1 Synthesis and biological properties of aminodeoxystatine and difluorostatone derivatives” (J Med Chem, 1991)

Target: T1, Renin (Homo sapiens, UniProt P00797)
T1 sequence (P00797 whole entry): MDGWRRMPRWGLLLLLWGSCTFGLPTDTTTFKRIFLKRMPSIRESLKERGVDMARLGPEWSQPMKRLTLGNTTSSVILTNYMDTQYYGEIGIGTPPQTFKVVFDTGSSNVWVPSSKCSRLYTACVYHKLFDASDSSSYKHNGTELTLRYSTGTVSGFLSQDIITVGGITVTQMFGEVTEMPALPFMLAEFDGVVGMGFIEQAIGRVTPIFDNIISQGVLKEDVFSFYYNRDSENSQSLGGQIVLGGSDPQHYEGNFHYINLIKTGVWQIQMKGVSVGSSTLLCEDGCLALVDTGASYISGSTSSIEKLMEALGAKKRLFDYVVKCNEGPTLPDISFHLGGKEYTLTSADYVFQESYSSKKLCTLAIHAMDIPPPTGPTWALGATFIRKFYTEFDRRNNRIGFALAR
Experiment: Inhibition of human renin

Row | Structure (SMILES) | IC50
1 | CC(C)Cc1nc(-c2ccccc2)cn2c([C@H](Cc3cccnc3)C(=O)N[C@@H](CC3CCCCC3)C(N)CC(=O)NC(CC(C)C)C(=O)NCc3ccccn3)nnc12 (stereo in doubt; 13a) | 3.9 nM
2 | CC(C)Cc1nc(-c2ccccc2)cn2c(CC(=O)NC(CC3CCCCC3)C(=O)C(F)(F)C(=O)NC(CC(C)C)C(=O)NCc3ccccn3)nnc12 (stereo unspecified) | 1.9 nM
3 | CC(C)Cc1nc(-c2ccccc2)cn2c([C@@H](Cc3cccnc3)C(=O)N[C@H](CC3CCCCC3)C(N)CC(=O)NC(CC(C)C)C(=O)NCc3ccccn3)nnc12 (stereo in doubt; 13d) | 120 nM
4 | CC(C)CCNC(=O)C(F)(F)C(=O)C(CC1CCCCC1)NC(=O)Cc1nnc2c(CC(C)C)nc(-c3ccccc3)cn12 (stereo unspecified) | 38 nM
5 | CC(C)Cc1nc(-c2ccccc2)cn2c([C@H](Cc3cccnc3)C(=O)N[C@@H](CC3CCCCC3)C(N)CC(=O)NC(CC(C)C)C(=O)NCc3ccccn3)nnc12 (stereo in doubt; 13b) | 100 nM
6 | CCCc1nc(-c2cccnc2)cn2c(C(Cc3cccnc3)C(=O)NC(CC3CCCCC3)C(=O)C(F)(F)C(=O)NCCC(C)C)nnc12 (stereo unspecified) | 1.8 nM
7 | CC(C)Cc1nc(-c2ccccc2)cn2c([C@@H](Cc3cccnc3)C(=O)N[C@H](CC3CCCCC3)C(N)CC(=O)NC(CC(C)C)C(=O)NCc3ccccn3)nnc12 (stereo in doubt; 13c) | 6.1 nM

Stronger by IC50, values ahead:

Row | IC50 | Structure (SMILES)
8 | 1.4 nM | CCCc1nc(-c2cccnc2)cn2c(CC(=O)NC(CC3CCCCC3)C(=O)C(F)(F)C(=O)NCC)nnc12 (stereo unspecified)
9 | 1.6 nM | CCCc1nc(-c2cccnc2)cn2c(CC(=O)NC(CC3CCCCC3)C(=O)C(F)(F)C(=O)NCCC(C)C)nnc12 (stereo unspecified)
10 | 1.7 nM | CC(C)Cc1nc(-c2ccccc2)cn2c(C(Cc3cccnc3)C(=O)NC(CC(C)CC3CCCCC3)C(O)CC(=O)NC(CC(C)C)C(=O)NCc3cccc(CN)c3)nnc12 (stereo unspecified)
11 | 1.7 nM | CCCc1nc(-c2cccnc2)cn2c(CC(=O)NC(CC3CCCCC3)C(=O)C(F)(F)C(=O)NCC(C)CC)nnc12 (stereo unspecified)
